Measurements as given in patent publication US20250381155A1, “USE OF 2-HYDROXYBENZYLAMINE IN THE TREATMENT AND PREVENTION OF PULMONARY HYPERTENSION” (Vanderbilt University, priority 2016, published 2025).
“Also recorded” adds a separate entry of the source.

Legend:
BMPR2 mutant PMVEC = test: Extracellular glutamine to glucose flux ratio in BMPR2 mutant PMVEC; type: cell-based; conditions: low-dose chetomin
Procedure: (§1) The present inventors used previously characterized WT and BMPR2 mutant (BMPR2^R899X) pulmonary microvascular endothelial cells isolated from conditionally immortalized murine lines generated on the ImmortoMouse background,^20 and WT and BMPR2 mutant PMVECs from a parent immortalized human line stably expressing either a WT or BMPR2 mutant construct transfected into the parent line and maintained under selection with G418S. […]
(§2) Glucose and lactate levels were measured using the YSI 2300 Stat Glucose and Lactate Analyzer (Yellow Springs, OH). High performance liquid chromatography (HPLC) was used to quantify amino acid concentrations, with norvaline as an internal standard. […] Flux rates were calculated using the ETA software package.^22
(§3) The present inventors next wished to determine the molecular events downstream from BMPR2 mutation that contribute to glutamine reliance. […] Then WT and BMPR2 mutant PMVEC was treated with chetomin, a pharmacologic inhibitor of HIF, and assessed glucose and glutamine uptake by quantifying the extracellular flux ratio of glutamine to glucose. […]

WT PMVEC = test: Extracellular glutamine to glucose flux ratio in WT PMVEC; type: cell-based; conditions: low-dose chetomin
Procedure: as §1, §2, §3

BMPR2^R899X mice [1] = test: Glutamine synthetase in liver mitochondria and circulating glutamine in treated BMPR2^R899X mice; type: in vivo
Procedure: (§4) To assess mitochondrial respiration in cultured PMVECs, cells were seeded in growth media in a 96-well plate from Seahorse Biosciences (Bilerica, MA) at a seeding density of 50,000 live cells per well. The following day, cells were washed and placed in Seahorse Assay Media supplemented with specific substrates (1 gm/L glucose, 2 mM L-glutamine). After equilibration, oxygen consumption rates were measured on a Seahorse XFe96 analyzer using the Mito Stress Test protocol. For mitochondrial protein measurements, mitochondria were isolated from fresh murine liver tissue as previously described.^24
(§5) All animal studies were approved by the Vanderbilt IACUC. Male and female FVB/N mice were 10-16 weeks of age. BMPR2^R899X mice were generated and maintained as previously described.^24,25 For 2HOBA studies, 1 gm/L was administered in the drinking water, with water bottles protected from light and water changes every 2-3 days.
(§6) Having shown that impaired BMPR2 function is associated with loss of SIRT3 function, and that this can be prevented with 2HOBA treatment to scavenge damaging lipid peroxidation products, the present inventors next wished to assess the in vivo metabolic dysfunction downstream from BMPR2 mutation, the relationship to PAH, and the effect of 2HOBA treatment. […]

WT mice = test: Glutamine synthetase in liver mitochondria of treated WT mice; type: in vivo; conditions: 2HOBA treatment
Procedure: as §4, §5, §6

SIRT3 = test: Lysine acetylation and SIRT3 content of the mitochondrial proteome from treated BMPR2^R899X mice (Western blot); type: in vivo; conditions: 1 g/L 2HOBA in drinking water
Procedure: as §4, §5
Because sirtuin expression and activity is tightly regulated by substrate availability, nutrient intake, physical activity, and interacting signaling pathways operating between organ systems, the role of SIRT3 in BMPR2-mediated PAH is best studied in a murine model system. […] The mitochondrial proteome was assessed for acetylation of lysine residues, with SIRT3 inactivation leading to lysine hyperacetylation. […]

[2] = Long-term safety, continuous dosing in mice; type: in vivo; conditions: over 12 months of continuous dosing in mice
[3] = pre-clinical animal studies; cited from earlier work
BMPR2^R899X mice [4] = test: Development of PAH in BMPR2^R899X mice (total pulmonary resistance, cardiac output by echocardiography, invasive RVSP); type: in vivo
Procedure: as §5
Echocardiography was performed on anesthetized mice (isoflurane anesthesia) to determine cardiac output. Right ventricular systolic pressure (RVSP) was invasively measured as described, using bromoethanol as the anesthetic.^24,25
All statistics were performed using GraphPad Prism 6.0 or Microsoft Excel unless otherwise specified. For animal experiments, sample sizes were chosen based upon previous experiments with approximately 80% of transgenic animals showing RVSP>30 mm Hg. Animals were randomly assigned to treatment groups by cage. For all measurements, investigators were blind to treatments and genotype until data analysis. Data were analyzed using two-tailed t-test, or two-way ANOVA with Tukey's post-test, as indicated. Significance was set at α<0.05 after correction for multiple comparisons.
Having shown that impaired BMPR2 function is associated with loss of SIRT3 function, and that this can be prevented with 2HOBA treatment to scavenge damaging lipid peroxidation products, the present inventors next wished to assess the in vivo metabolic dysfunction downstream from BMPR2 mutation, the relationship to PAH, and the effect of 2HOBA treatment. The present inventors hypothesized that 2HOBA would prevent the development of PAH in BMPR2^R899X mice and would have a beneficial modulatory effect on glutamine metabolism in vivo. Expression of the BMPR2^R899X allele was sufficient to drive upregulation of glutamine synthetase in skeletal muscle (FIG. 10) and in liver mitochondria (FIG. 7A) compared to WT.

[5] = 2HOBA vs vehicle-treated mutants

## CN1C(=O)[C@]2(Cc3cn([C@]45C[C@@]67SS[C@@](CO)(C(=O)N6[C@H]4Nc4ccccc45)N(C)C7=O)c4ccccc34)SS[C@@]1(CO)C(=O)N2C [chetomin]
BMPR2 mutant PMVEC
  glutamine to glucose flux ratio: significantly reduced
WT PMVEC
  glutamine to glucose flux ratio: no effect; also recorded: essentially unaffected

## NCc1ccccc1O [2HOBA, 2-hydroxybenzylamine]
BMPR2^R899X mice [1]; 2HOBA-treated BMPR2^R899X mice compared to 2HOBA-treated WT mice
  circulating (plasma) glutamine: significantly lower; also recorded: significantly reduces
BMPR2^R899X mice [1]; BMPR2^R899X mice, 2HOBA treatment
  glutamine synthetase in liver mitochondria: reduced
WT mice
  glutamine synthetase in liver mitochondrial fraction: not substantially
SIRT3
  total SIRT3 content in the mitochondria: without affecting
SIRT3; Western diet, isolated mitochondria
  lysine acetylation in the mitochondrial proteome: significantly reduced; also recorded: normalized
[2]
  toxicity: no significant toxicity
[3]
  safety profile: excellent safety profile
BMPR2^R899X mice [4]; 2HOBA compared to vehicle-treated mice
  development of pulmonary hypertension as measured by total pulmonary resistance: prevented the development of pulmonary hypertension; also recorded: to a level statistically indistinguishable from WT
BMPR2^R899X mice [4]; [5]
  cardiac output: modestly increased; also recorded: trends toward improved
  right ventricular systolic pressure (RVSP): decreased; also recorded: trends toward a decrease
